Test results from patent US6737383B1, “Herbicidal oxadiazolidines” (priority 1999, dated 2004).

Assays:
bedstraw = assay: Test B pre/postemergence bedstraw; format: in vivo, Galium aparine
In short: (§1)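 Test chemicals in a non-phytotoxic solvent mixture with surfactant were sprayed preemergence onto planted seeds and postemergence onto plants 2 to 18 cm tall (1- to 4-leaf stage). After twelve to sixteen days in a greenhouse, injury was visually rated against untreated controls from 0 (no effect) to 10 (complete control).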

blackgrass = assay: Test B pre/postemergence blackgrass; format: in vivo, Alopecurus myosuroides
In short: as §1

surinam grass = assay: Test B pre/postemergence surinam grass; format: in vivo, Brachiaria decumbens
In short: as §1

cocklebur = assay: Test B pre/postemergence cocklebur; format: in vivo, Xanthium strumarium
In short: as §1

crabgrass = assay: Test B pre/postemergence crabgrass; format: in vivo, Digitaria sanguinalis
In short: as §1

giant foxtail = assay: Test B pre/postemergence giant foxtail; format: in vivo, Setaria faberii
In short: as §1

morningglory = assay: Test B pre/postemergence morningglory; format: in vivo, Ipomoea hederacea
In short: as §1

pigweed = assay: Test B pre/postemergence pigweed; format: in vivo, Amaranthus retroflexus
In short: as §1

sugar beet = assay: Test B pre/postemergence sugar beet; format: in vivo, Beta vulgaris
In short: as §1

velvetleaf = assay: Test B pre/postemergence velvetleaf; format: in vivo, Abutilon theophrasti
In short: as §1

wheat = assay: Test B pre/postemergence wheat; format: in vivo, Triticum aestivum
In short: as §1

wild oat = assay: Test B pre/postemergence wild oat; format: in vivo, Avena fatua
In short: as §1

purple nutsedge = assay: Test B pre/postemergence purple nutsedge; format: in vivo, Cyperus rotundus
In short: as §1

rice = assay: Test B flood test rice; format: in vivo, Oryza sativa
In short: (§2)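 Plants were grown to the 2-leaf stage before treatment with test chemical, then held in a greenhouse for twelve to sixteen days. Injury was visually rated against untreated controls on a 0–10 scale, where 0 is no effect and 10 is complete control.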

duck salad = assay: Test B flood test duck salad; format: in vivo, Heteranthera limosa
In short: as §2

bamyardgrass = assay: Test B flood test barnyardgrass; format: in vivo, Echinochloa crus-galli
In short: as §2

[1] = Postemergence, Rate 62 g/ha, scale 0 to 10, 0 is no effect, 10 is complete control
[2] = Postemergence, Rate 125 g/ha, scale of 0 to 10 where 0 is no effect and 10 is complete control
[3] = Postemergence, Rate 1000 g/ha, scale 0 to 10 (0 no effect, 10 complete control)
[4] = Preemergence, Rate 62 g/ha, scale 0 to 10 (0 no effect, 10 complete control)
[5] = Preemergence, Rate 125 g/ha, 0 is no effect, 10 is complete control
[6] = Preemergence, Rate 250 g/ha, scale 0 to 10, 0 is no effect, 10 is complete control
[7] = Preemergence, Rate 500 g/ha, scale 0 to 10 (0 no effect, 10 complete control)
[8] = Rate 250 g/ha, Postemergence, scale 0 to 10, 0 is no effect, 10 is complete control
[9] = Rate 1000 g/ha, Preemergence, scale 0 to 10 (0 no effect, 10 complete control)
[10] = Rate 62 g/ha, Postemergence, scale of 0 to 10 where 0 is no effect and 10 is complete control
[11] = Rate 500 g/ha, Postemergence, scale 0 to 10
[12] = Postemergence (flood test species), Rate 125 g/ha, scale of 0 to 10 where 0 is no effect and 10 is complete control
[13] = Rate 62 g/ha, Postemergence section, flood test species, scale of 0 to 10 where 0 is no effect and 10 is complete control
[14] = Rate 250 g/ha, Postemergence (flood test), scale 0 to 10, 0 is no effect, 10 is complete control
[15] = Rate 500 g/ha, listed under Postemergence (flood test species), scale 0 to 10

SMILES: C=CCn1c(=O)on(C(=O)N(c2ccc(F)cc2F)C2CC2)c1=O [Compound 127]
- Bedstraw plant response rating (bedstraw; [1]): 0
- Bedstraw plant response rating (bedstraw; [2]): 0
- Bedstraw plant response rating (bedstraw; [3]): 0
- Bedstraw plant response rating (bedstraw; [4]): 0
- Bedstraw plant response rating (0 to 10 scale) (bedstraw; [5]): 0
- Bedstraw plant response rating (bedstraw; [6]): 0
- Bedstraw plant response rating (bedstraw; [7]): 0
- Plant response rating, Bedstraw (bedstraw; [8]): 0
- Bedstraw plant response rating (bedstraw; Rate 500 g/ha, Postemergence, scale 0 to 10, 0 no effect, 10 complete control): 0
- Plant response rating, Bedstraw (bedstraw; [9]): 0
- Blackgrass plant response rating (blackgrass; [2]): 0
- Blackgrass plant response rating (blackgrass; [3]): 0
- Blackgrass plant response rating (blackgrass; [4]): 0
- Blackgrass plant response rating (0 to 10 scale) (blackgrass; [5]): 0
- Blackgrass plant response rating (blackgrass; [6]): 0
- Blackgrass plant response rating (blackgrass; [7]): 0
- Blackgrass plant response rating (blackgrass; [10]): 0
- Plant response rating, Blackgrass (blackgrass; [8]): 0
- Blackgrass plant response rating (blackgrass; [11]): 0
- Plant response rating, Blackgrass (blackgrass; [9]): 0
- B. signalgrass plant response rating (surinam grass; [1]): 0
- B. signalgrass plant response rating (surinam grass; [2]): 0
- B. signalgrass plant response rating (surinam grass; [3]): 0
- B. signalgrass plant response rating (surinam grass; [4]): 0
- B. signalgrass plant response rating (0 to 10 scale) (surinam grass; [5]): 0
- B. signalgrass plant response rating (surinam grass; [6]): 0
- B. signalgrass plant response rating (surinam grass; [7]): 0
- Plant response rating, B. signalgrass (surinam grass; [8]): 0
- B. signalgrass plant response rating (surinam grass; Rate 500 g/ha, Postemergence, scale of 0 to 10 where 0 is no effect and 10 is complete control): 0
- Plant response rating, B. signalgrass (surinam grass; [9]): 0
- Cocklebur plant response rating (cocklebur; [2]): 0
- Cocklebur plant response rating (cocklebur; [3]): 0
- Cocklebur plant response rating (cocklebur; [4]): 0
- Cocklebur plant response rating (0 to 10 scale) (cocklebur; [5]): 0
- Cocklebur plant response rating (cocklebur; [6]): 0
- Cocklebur plant response rating (cocklebur; [7]): 0
- Cocklebur plant response rating (cocklebur; [10]): 0
- Plant response rating, Cocklebur (cocklebur; [8]): 0
- Cocklebur plant response rating (cocklebur; [11]): 0
- Crabgrass plant response rating (crabgrass; [2]): 0
- Crabgrass plant response rating (crabgrass; [3]): 0
- Crabgrass plant response rating (crabgrass; [4]): 0
- Crabgrass plant response rating (0 to 10 scale) (crabgrass; [5]): 0
- Crabgrass plant response rating (crabgrass; [6]): 0
- Crabgrass plant response rating (crabgrass; [7]): 0
- Crabgrass plant response rating (crabgrass; [10]): 0
- Plant response rating, Crabgrass (crabgrass; [8]): 0
- Crabgrass plant response rating (crabgrass; [11]): 0
- Plant response rating, Crabgrass (crabgrass; [9]): 7
- Giant foxtail plant response rating (giant foxtail; [2]): 0
- Giant foxtail plant response rating (giant foxtail; [3]): 0
- Giant foxtail plant response rating (giant foxtail; [4]): 0
- Giant foxtail plant response rating (0 to 10 scale) (giant foxtail; [5]): 0
- Giant foxtail plant response rating (giant foxtail; [6]): 2
- Giant foxtail plant response rating (giant foxtail; [7]): 4
- Giant foxtail plant response rating (giant foxtail; [10]): 0
- Plant response rating, Giant foxtail (giant foxtail; [8]): 0
- Giant foxtail plant response rating (giant foxtail; [11]): 0
- Plant response rating, Giant foxtail (giant foxtail; [9]): 9
- Morningglory plant response rating (morningglory; [2]): 0
- Morningglory plant response rating (morningglory; [3]): 0
- Morningglory plant response rating (morningglory; [4]): 0
- Morningglory plant response rating (0 to 10 scale) (morningglory; [5]): 0
- Morningglory plant response rating (morningglory; [6]): 0
- Morningglory plant response rating (morningglory; [7]): 0
- Morningglory plant response rating (morningglory; [10]): 0
- Plant response rating, Morningglory (morningglory; [8]): 0
- Morningglory plant response rating (morningglory; [11]): 0
- Plant response rating, Morningglory (morningglory; [9]): 0
- Redroot pigweed plant response rating (pigweed; [2]): 0
- Redroot pigweed plant response rating (pigweed; [3]): 0
- Redroot pigweed plant response rating (pigweed; [4]): 0
- Redroot pigweed plant response rating (0 to 10 scale) (pigweed; [5]): 0
- Redroot pigweed plant response rating (pigweed; [6]): 3
- Redroot pigweed plant response rating (pigweed; [7]): 7
- Redroot pigweed plant response rating (pigweed; [10]): 0
- Plant response rating, Redroot pigweed (pigweed; [8]): 0
- Redroot pigweed plant response rating (pigweed; [11]): 0
- Plant response rating, Redroot pigweed (pigweed; [9]): 10
- Sugarbeets plant response rating (sugar beet; [2]): 0
- Sugarbeets plant response rating (sugar beet; [3]): 0
- Sugarbeets plant response rating (sugar beet; [4]): 0
- Sugarbeets plant response rating (0 to 10 scale) (sugar beet; [5]): 0
- Sugarbeets plant response rating (sugar beet; [6]): 0
- Sugarbeets plant response rating (sugar beet; [7]): 0
- Sugarbeets plant response rating (sugar beet; [10]): 0
- Plant response rating, Sugarbeets (sugar beet; [8]): 0
- Sugarbeets plant response rating (sugar beet; [11]): 0
- Plant response rating, Sugarbeets (sugar beet; [9]): 0
- Velvetleaf plant response rating (velvetleaf; [2]): 0
- Velvetleaf plant response rating (velvetleaf; [3]): 0
- Velvetleaf plant response rating (velvetleaf; [4]): 0
- Velvetleaf plant response rating (0 to 10 scale) (velvetleaf; [5]): 0
- Velvetleaf plant response rating (velvetleaf; [6]): 0
- Velvetleaf plant response rating (velvetleaf; [7]): 0
- Velvetleaf plant response rating (velvetleaf; [10]): 0
- Plant response rating, Velvetleaf (velvetleaf; [8]): 0
- Velvetleaf plant response rating (velvetleaf; [11]): 0
- Plant response rating, Velvetleaf (velvetleaf; [9]): 0
- Wheat plant response rating (wheat; [2]): 0
- Wheat plant response rating (wheat; [3]): 0
- Wheat plant response rating (wheat; [4]): 0
- Wheat plant response rating (0 to 10 scale) (wheat; [5]): 0
- Wheat plant response rating (wheat; [6]): 0
- Wheat plant response rating (wheat; [7]): 0
- Wheat plant response rating (wheat; [10]): 0
- Plant response rating, Wheat (wheat; [8]): 0
- Wheat plant response rating (wheat; [11]): 0
- Plant response rating, Wheat (wheat; [9]): 2
- Wild oats plant response rating (wild oat; [2]): 0
- Wild oats plant response rating (wild oat; [3]): 0
- Wild oats plant response rating (wild oat; [4]): 0
- Wild oats plant response rating (0 to 10 scale) (wild oat; [5]): 0
- Wild oats plant response rating (wild oat; [6]): 0
- Wild oats plant response rating (wild oat; [7]): 0
- Wild oats plant response rating (wild oat; [10]): 0
- Plant response rating, Wild oats (wild oat; [8]): 0
- Wild oats plant response rating (wild oat; [11]): 0
- Plant response rating, Wild oats (wild oat; [9]): 8
- Nutsedge plant response rating (purple nutsedge; [2]): 0
- Nutsedge plant response rating (purple nutsedge; [3]): 0
- Nutsedge plant response rating (purple nutsedge; [4]): 0
- Nutsedge plant response rating (0 to 10 scale) (purple nutsedge; [5]): 0
- Nutsedge plant response rating (purple nutsedge; [6]): 0
- Nutsedge plant response rating (purple nutsedge; [7]): 0
- Nutsedge plant response rating (purple nutsedge; [10]): 0
- Plant response rating, Nutsedge (purple nutsedge; [8]): 0
- Nutsedge plant response rating (purple nutsedge; [11]): 0
- Rice plant response rating (rice; [12]): 0
- Rice plant response rating (rice; [13]): 0
- Plant response rating, Rice (rice; [14]): 0
- Rice plant response rating (rice; [15]): 0
- Ducksalad plant response rating (duck salad; [12]): 0
- Ducksalad plant response rating (duck salad; [13]): 0
- Plant response rating, Ducksalad (duck salad; [14]): 0
- Ducksalad plant response rating (duck salad; [15]): 0
- Barnyardgrass plant response rating (bamyardgrass; [12]): 0
- Barnyardgrass plant response rating (bamyardgrass; [1]): 0
- Plant response rating, Barnyardgrass (bamyardgrass; [14]): 0
- Barnyardgrass plant response rating (bamyardgrass; Rate 500 g/ha, listed under Postemergence (flood test species), scale 0 to 10, 0 no effect, 10 complete control): 0
